Measurements from the NIST ThermoML archive (doi:10.1016/j.fluid.2015.06.015).
± gives the expanded uncertainty stated by the source.

How the values were obtained:
[1] = Molar enthalpy of transition or fusion; details: Crystal 1; DSC
[2] = DTA; for Normal melting temperature: Crystal 1

Compound | Molar enthalpy of transition or fusion [1] | Normal melting temperature [2] | Triple point temperature ([2]; Crystal 2) | Triple point temperature ([2]; Crystal 3)
CCCCCCCC/C=C\CCCCCCCC(=O)OCC(COC(=O)CCCCCCC/C=C\CCCCCCCC)OC(=O)CCCCCCC/C=C\CCCCCCCC [1,2,3-tri(cis-9-octadecenoyl)glycerol] | 27.4 ± 0.598 kcal/mol | 5.42 ± 0.39 °C | 258.99 ± 0.66 K | –
CCCCCCCCCCCCCCO [1-tetradecanol] | 10.9 ± 0.454 kcal/mol | 38.0 ± 0.53 °C | 310.06 ± 0.78 K | –
CCCCCCCCCCO [decan-1-ol] | 7.09 ± 0.43 kcal/mol | 6.96 ± 0.56 °C | 275.94 ± 0.68 K | –
CCCCCCCCCC(=O)O [decanoic acid] | 6.51 ± 0.217 kcal/mol | 32.33 ± 0.41 °C | – | –
CCCCCCCCCCCCO [dodecan-1-ol] | 9.19 ± 0.335 kcal/mol | 24.38 ± 0.39 °C | 296.95 ± 0.39 K | 291.04 ± 0.7 K
CCCCCCCCCCCC(=O)O [dodecanoic acid] | 8.27 ± 0.502 kcal/mol | 45.33 ± 1 °C | 317.91 ± 0.46 K | –
CCCCCCCCCCCCCC(=O)O [tetradecanoic acid] | 10.5 ± 0.222 kcal/mol | 55.78 ± 0.5 °C | 327.95 ± 0.7 K | –
